From US20250345344A1, “NOVEL NRF2 ACTIVATOR AND USE THEREOF” (SHANGHAI INSTITUTE FOR BIOMEDICAL AND PHARMACEUTICAL …, priority 2022, published 2025)

Key:
ovarian granulosa cells = test: Protection of primary ovarian granulosa cells against doxorubicin (DOX) cytotoxicity, CCK-8; type: cell-based, mice; settings: DOX alone, final concentration 25 μg/mL
Procedure: In-vitro-Culture of granulosa cells of mice. Female ICR mice aged 21 to 23 days were euthanized by dislocation after anesthesia. After disinfecting the abdominal skin with 75% alcohol, bilateral ovaries were taken out and antral follicles were punctured under dissecting microscope to release granulosa cells into a M2 culture medium containing 20% FBS. Then the culture medium was centrifuged at 1,000 revolutions per minute for 5 minutes. Supernatant was discarded, and residue was washed three times with a culture medium, and then was placed in a 96 well plate in an alpha MEM culture medium containing 5% FBS for further culture. […]
After the granulosa cells in a 96 well plate prolificated to 70% to 80%, the culture medium was taken out, and 10 μL of the test drug (C1 (a compound represented by Formula I, m is 3, R1 is OH, and R2 is H), C2 (a compound represented by Formula I, m is 3, R1 is Cl, and R2 is H), C3 (a compound represented by Formula I, m is 3, R1 is OCH3, and R2 is H), C4 (a compound represented by Formula I, m is 3, R1 is H, and R2 is H)), 10 μL of DOX with a final concentration of 25 μg/mL, and 80 μL of fresh culture medium were sequentially added. […] The absorbance (OD) value (450 nm) of each well was measured using an enzyme-linked immunosorbent assay (ELISA) reader to calculate the survival rate of granulosa cells of mice. […]

[1] = system: Keap1-Nrf2/ARE signaling pathway; test: Western blot of Keap1-Nrf2/ARE pathway related proteins in H2O2 induced SH-SY5Y nerve cell injury model; type: cell-based, human; settings: NAC 1 mM pre-treated 1 hour, then H2O2 400 μM 24 hours, P<0.05
Procedure: (§1) The culture of cells. Human neuroblastoma cells SH-SY5Y (American Type Culture Collection, Manassas, VA, USA) were cultivated in an incubator at 37° C. and a volume fraction of 5% CO2. The culture medium contains DMEM/F-12, 2 mM glutamine, 100 U/ml penicillin, 100 μg/ml streptomycin, and 10% FBS. Cells were seeded into a 96 well plate at a density of 2×10^4 cells per well and subjected to proliferation until 90%.
(§2) The cells were randomly divided into four groups: blank control group, hydrogen peroxide group (Veh), Mep-S group, and NAC group (a neuroprotective drug used as a positive control). The cells of Mep-S group (1 μM) and NAC group (1 mM) were pre-treated with corresponding concentrations of drugs for 1 hour. Then, except for the blank control group which was given physiological saline, the cells of all other groups were incubated with H2O2 (400 μM) for 24 hours.
Western blot was used to detect the expression levels of neuronal apoptosis protein (Caspase3) and Keap1-Nrf2/ARE pathway related proteins (Keap1, Nrf2, HO-1, NQO-1, etc.) in each group. The bands were visualized using enhanced chemiluminescence (Pierce, Rockford, IL, USA) and quantitative analysis was performed using Image Studio Lite 5.2.

SH-SY5Y cells = test: Annexin V/PI dual staining, apoptosis by flow cytometry in H2O2 injured SH-SY5Y cells; type: cell-based, human; settings: NAC 1 mM pre-treated 1 hour, then H2O2 400 μM 24 hours; P<0.05
Procedure: as §1, §2
Annexin V/PI dual staining method was used to detect the protective effect of Mep-S on cellular oxidative damage. Cell apoptosis was measured by flow cytometry using FITC Annexin V apoptosis detection kit (BD Pharmingen, Franklin Lakes, NJ, USA). The operation was performed following the instructions.

[2] = compared with H2O2 damage group

| Structure (SMILES) | Cell survival rate (%) (ovarian granulosa cells; 24 hours, CCK-8 (positive control group)) | growth of granulosa cells (in words) (ovarian granulosa cells; p<0.01 versus negative control) | phosphorylation level of Akt [1] | level of HO-1 protein [1, 2] | level of Keap 1 protein [1, 2] | level of NQO-1 protein [1, 2] | level of Nrf2 protein in the cell nucleus [1, 2] | level of Nrf2 protein in the cytoplasm [1, 2] | apoptosis rate of SH-SY5Y cells (SH-SY5Y cells) |
| --- | --- | --- | --- | --- | --- | --- | --- | --- | --- |
| COc1cccc2c1C(=O)c1c(O)c3c(c(O)c1C2=O)C[C@@](O)(C(=O)CO)C[C@@H]3O[C@H]1C[C@H](N)[C@H](O)[C@H](C)O1 [DOX, doxorubicin] | 61.8% | significantly inhibited the growth | – | – | – | – | – | – | – |
| CC(=O)N[C@@H](CS)C(=O)O [NAC] | – | – | significantly restores its expression level | significantly inhibits the decrease | inhibits the increase | significantly inhibits the decrease | significantly inhibits the decrease | inhibits the increase | significantly reduces the apoptosis rate |
